Values of other authors as cited in US11707455B2, “Pharmaceutical composition containing dabigatran etexilate and preparation method thereof” (SHANGHAI WD PHARMACEUTICAL CO., LTD, priority 2018, dated 2023).

Experiments:
[1] = in vivo
[2] = pH 1

Cmax variation range [1]: ≤ 5 folds
maximum solubility [2]: greater than 80 mg/mL
Structure (SMILES): CCCCCCOC(=O)N=C(N)c1ccc(NCc2nc3cc(C(=O)N(CCC(=O)OCC)c4ccccn4)ccc3n2C)cc1.CS(=O)(=O)O [DEM]
